From patent publication EP0220873B1, “Fused bicyclic imides with psychotropic activity” (priority 1985, dated 1987)
Where a name gives a salt, the structure may show the parent alone.

Experiments:
[1] = target: T1, limbic D-2 dopamine receptor (Rattus norvegicus, UniProt P61169); experiment: biochemical; format: binding, rats; conditions: for inhibition at 1 µM: read-out: Limbic D-2 Binding, % inhibition at 1 µM; for Ki: Table 1, 0.3 nM 3H-spiroperidol, rat limbic brain tissue, read-out: Limbic D-2 Binding (KinM)
T1 construct: Limbic brain tissue (nucleus accumbens, septal area, olfactory tubercle) is dissected; from tissue; host or cells: rat limbic brain tissue (nucleus accumbens, septal area, olfactory tubercle) homogenate

avoidance responding [2] = experiment: conditioned avoidance (shelf-jump response) test; format: in vivo, Male CD rats; conditions: for Active at mg/kg: i.p.
Experimental: Another test designed to determine the potential antipsychotic activity of the compounds of the invention is the conditioned avoidance (shelf-jump response) test.
This test is carried out as follows: Male CD rats (Charles River) maintained at approximately 400-450 gm body weight are used. Previously trained rats are placed in plexiglass experimental chambers divided into two sections; a main chamber (10 1/2" x 6 3/4" x 11 7/8" high) and an elevated chamber or shelf (5 7/8" x 6 7/8" x 5 3/4"). A moveable wall, controlled by a motor, determines whether the rat has access to the shelf at any time during the experiment. The experimental chamber also contains a house light and sonalert. A steel grid floor in the main chamber is wired for presentation of electric shock. Each trial consists of a fifteen-second warning tone (conditioned stimulus), continuing for an additional fifteen seconds accompanied by electric shock, (unconditioned stimulus). A response (jumping onto the exposed shelf of the upper chamber) occurring during the initial fifteen-second warning tone is considered an avoidance response, while a response occurring during shock delivery is considered an escape response. Trials are presented on a fixed interval schedule of one minute. The session consists of thirty-six trials. Animals are run twice weekly with control sessions always preceding a drug run, and with at least one day intervening. Compounds are administered i.p. or p.o. at appropriate pre-treatment times to a minimum of five rats at each dose level over a range of doses.
The following experimental parameters are recorded by computer: (1) the number of avoidance responses, (2) the number of escape responses, and (3) the number of trials in which no response occurred.
(§1) Response counts are summed over all subjects at a given dose. […] This number is expressed as a percentage of the total trials. Control performance is arbitrarily assigned a value of 100% for avoidance and the dose calculated to produce a 50% block in avoidance responding (AB₅₀) is obtained from a dose-effect regression line fitted by the method of least squares. Potential antipsychotic compounds suppress avoidance responding and increase escape responding.

avoidance responding [3] = experiment: conditioned avoidance (discrete trial) test; format: in vivo, Male CD rats; conditions: for ED50: Rattus norvegicus
Experimental: The antipsychotic activity of the compounds of the invention is assessed via the conditioned avoidance (discrete trial) test. This test has excellent clinical correlation for antipsychotic activity.
The test is carried out as follows: Male CD rats (Charles River) maintained at approximately 400-450 gm body weight are used. Rats trained previously are placed in plexiglass experimental chambers equipped with a response lever, house light, and sonalert. A steel grid floor is wired for presentation of electric shock. Each trial consists of a fifteen-second warning tone (conditioned stimulus), continuing for an additional fifteen seconds accompanied by electric shock, (unconditioned stimulus). The rat can terminate a trial at any point by depression of the response lever. As response during the initial fifteen-second warning tone ends the trial before shock delivery and is considered avoidance response, while a response occurring during shock delivery is an escape response. Trials are presented on a variable interval schedule of two minutes. The session consists of sixty trials. Animals are run two to three times weekly with control sessions always preceding a drug run, and with at least one day intervening, compounds are administered i.p. or p.o. at appropriate pre-treatment times to a minimum of five to six rats at each dose level over a range of doses.
as §1

[4] = ip, standard compounds, dose producing 50% block in avoidance responding, read-out: AB50 (the source's name)

T1 sequence (P61169 whole entry): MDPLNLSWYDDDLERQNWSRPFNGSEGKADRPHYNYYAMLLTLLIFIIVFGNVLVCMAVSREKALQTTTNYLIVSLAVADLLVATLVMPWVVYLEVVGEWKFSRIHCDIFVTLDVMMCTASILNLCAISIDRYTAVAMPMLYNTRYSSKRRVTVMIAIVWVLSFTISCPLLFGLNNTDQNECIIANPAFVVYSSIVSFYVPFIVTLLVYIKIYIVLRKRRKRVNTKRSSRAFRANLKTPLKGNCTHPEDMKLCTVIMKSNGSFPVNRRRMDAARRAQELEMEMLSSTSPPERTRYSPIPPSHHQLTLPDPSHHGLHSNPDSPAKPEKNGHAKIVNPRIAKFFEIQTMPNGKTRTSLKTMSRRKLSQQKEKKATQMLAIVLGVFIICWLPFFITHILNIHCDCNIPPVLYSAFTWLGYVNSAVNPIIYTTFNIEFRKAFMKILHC

Row | Molecule | Active at mg/kg (avoidance responding [2]) | further results
1 | Cl.O.O=C1C2C3C=CC(CCCC3)C2C(=O)N1CCCCN1CCN(c2nccnc2Cl)CC1 (centres unmarked) [Example 20, 2-[4-[4-(3-Chloro-2-pyrazinyl)-1-piperazinyl]butyl]octahydro-4,9-etheno-1H-cycloocta[c]pyrrole-1,3(2H)-dione, hydrochloride, hydrate] | 40 (i.p.) mg/kg | inhibition at 1 µM [1]: 78%
2 | CSc1ccc2c(c1)N(CCC1CCCCN1C)c1ccccc1S2 (centres unmarked) [Thioridazine, reference compound] | – | ED50 (avoidance responding [3]; [4]): 8.61 mg/kg
3 | Cl.O=C1C2C3CCC(C4CC43)C2C(=O)N1CCCCN1CCN(c2nccnc2Cl)CC1 (centres unmarked) [Example 26, 2-[4-[4-(3-Chloro-2-pyrazinyl)-1-piperazinyl]butyl]hexahydro-4,6-ethanocycloprop[f]isoindole-1,3(2H,3aH)-dione, hydrochloride] | 40 (i.p.) mg/kg | inhibition at 1 µM [1]: 75%
4 | O=C1C2C3C=CC(C4C=CC43)C2C(=O)N1CCCCN1CCN(c2ccc(Cl)nn2)CC1 (centres unmarked) [Example 11, 3a,4,4a,6a,7,7a-Hexahydro-2-[4-[4-(6-chloro-3-pyridazinyl)-1-piperazinyl]butyl]4,7-etheno-1H--cyclobut[f]isoindole-1,3(2H)-dione, hydrochloride, hydrate] | 40 (i.p.) mg/kg | –
5 | O=C1C2C3C=CC(C4C=CC43)C2C(=O)N1CCCCN1CCN(c2nccnc2Cl)CC1 (centres unmarked) [Example 12, 3a,4,4a,6a,7,7a-Hexahydro-2-[4-[4-(3-chloro-2-pyrazinyl-1-piperazinyl]butyl]4,7-etheno-1H-cyclobut[f]isoindole-1,3(2H)-dione, hydrochloride, dihydrate] | 40 (i.p.) mg/kg | –
6 | O=C1C2C3C=CC(C3)C2C(=O)N1CCCCN1CCN(c2nccnc2Cl)CC1 (centres unmarked) [Example 18, 2-[4-[4-(3-Chloro-2-pyrazinyl)-1-piperazinyl]butyl]-3a,4,7,7a-tetrahydro-4,7-methano-1H-isoindole-1,3-(2H)-dione, hydrochloride, 2.5 hydrate] | 40 (i.p.) mg/kg | inhibition at 1 µM [1]: 48%; ED50 (avoidance responding [3]; po, footnote 1 = AB50 value, read-out: Active at mg/kg (AB50 value)): 40 mg/kg
7 | O=C1CC2(CCCC2)CC(=O)N1CCCCN1CCN(c2ncccn2)CC1 [Buspirone, 8-[4-[4-(2-pyrimidinyl)-1-piperazinyl]butyl]-8-azaspiro[4.5]decane-7,9-dione, reference compound] | – | ED50 (avoidance responding [2]; Rattus norvegicus, ip, standard compounds, read-out: AB50 (the source's name)): 9.94 mg/kg
8 | O=C1C2C3CCCCC(CC3)C2C(=O)N1CCCCN1CCN(c2cncc(Cl)n2)CC1 (centres unmarked) [Example 14, hydrochloride, hemihydrate] | 40 (i.p.) mg/kg | Ki [1]: 440 nM
9 | Cl.O.O=C1C2C3C=CC(CCC3)C2C(=O)N1CCCCN1CCN(c2cncc(Cl)n2)CC1 (centres unmarked) [Example 22, 2-[4-[4-(6-Chloro-2-pyrazinyl)-1-piperazinyl]butyl]-4,5,6,7,8,8a-hexahydro-4,8-ethenocyclohepta[c]pyrrole-1,3(2H,3aH)-dione, hydrochloride, hydrate] | 40 (i.p.) mg/kg | inhibition at 1 µM [1]: 43%; ED50 (avoidance responding [3]; po, read-out: Active at mg/kg (AB50 value)): 68.4 mg/kg
10 | 2-[4-[4-(2-Pyrimidinyl)-1-piperazinyl]butyl]octahydro-4,7ethano-1H-cyclobut[f]isoindole-1,3-(2H)-dione, dihydrochloride, sesquihydrate [Example 6] | 40 (i.p.) mg/kg | Active at mg/kg (avoidance responding [3]; p.o., active dose, no AB50): 40 (p.o.) mg/kg
11 | O=C1C2C3C=CC(C4CCC34)C2C(=O)N1CCCCN1CCN(c2nccnc2Cl)CC1 (centres unmarked) [Example 10, 2-[4-[4-(3-Chloro-2-pyrazinyl)-1-piperazinyl]butyl] octahydro-4,7-etheno-1H-cyclobut[f]isoindole-1,3(2H)--dione, dihydrochloride, hydrate] | 40 (i.p.) mg/kg | –
12 | Cl.Cl.O.O=C1C2C3C=CC(C4C=CC43)C2C(=O)N1CCCCN1CCN(c2ccc(C(F)(F)F)cn2)CC1 (centres unmarked) [Example 28, 3a,4,4a,6a,7,7a-Hexahydro-2-[4-[4-(5-trifluoromethyl-2-pyridinyl)-1-piperazinyl]-butyl]-4,7-etheno-1H-cyclobut[f]isoindole-1,3(2H)-dione, dihydrochloride, hydrate] | 40 (i.p.) mg/kg | –
13 | O=C(CCCN1CCC(O)(c2ccc(Cl)cc2)CC1)c1ccc(F)cc1 [Haloperidol, reference compound] | – | ED50 (avoidance responding [3]; [4]): 0.18 mg/kg
14 | O=C1C2C3C=CC(C4C=CC43)C2C(=O)N1CCCCN1CCN(c2cncc(Cl)n2)CC1 (centres unmarked) [Example 4, 3a,4,4a,6a,7,7a-Hexahydro-2-[4-[4-(6-chloro-2-pyrazinyl)-1-piperazinyl]butyl]-4,7-etheno-1H-cyclobut[f]isoindole-1,3(2H)-dione, dihydrochloride, sesquihydrate] | 40 (i.p.) mg/kg | –
15 | O=C1C2C3C=CC(C3)C2C(=O)N1CCCCN1CCN(c2ccc(Cl)nn2)CC1 (centres unmarked) [Example 17, 2-[4-[4-(6-Chloro-3-pyridazinyl-1-piperazinyl]butyl]-3a,4,7,7a-tetrahydro-4,7-methano-1H-isoindole-1,3-(2H)-dione, hydrochloride, dihydrate] | 40 (i.p.) mg/kg | inhibition at 1 µM [1]: 19%
16 | Cl.O=C1C2C3CCC(C4CC43)C2C(=O)N1CCCCN1CCN(c2cncc(Cl)n2)CC1 (centres unmarked) [Example 25, 2-[4-[4-(6-Chloro-2-pyrazinyl)-1-piperazinyl]butyl]hexahydro-4,6-ethanocycloprop[f]isoindole-1,3(2H,3aH)-dione, hydrochloride] | 40 (i.p.) mg/kg | inhibition at 1 µM [1]: 49%
17 | Cl.O.O=C1C2C3C=CC(C4CC34)C2C(=O)N1CCCCN1CCN(c2nccnc2Cl)CC1 (centres unmarked) [Example 19, 2-[4-[4-(3-Chloro-2-pyrazinyl)-1-piperazinyl]butyl]hexahydro-4,6-ethenocycloprop[f]isoindole-1,3(2H,3aH)-dione, hydrochloride, hydrate] | 40 (i.p.) mg/kg | Ki [1]: 54 nM
18 | Cl.Cl.O=C1C2C3CCCC(CC3)C2C(=O)N1CCCCN1CCN(c2ncccn2)CC1 (centres unmarked) [Example 29, 4,5,6,7,8,8a-Hexahydro-2-[4-[4-(2-pyrimidinyl)-1-piperazinyl]butyl]-4,8-ethanocyclohepta[c]pyrrole-1,3(2H,3aH)-dione, dihydrochloride] | 40 (i.p.) mg/kg | –
19 | O=C1C2C3C=CC(C4CC34)C2C(=O)N1CCCCN1CCN(c2ccc(Cl)nn2)CC1 (centres unmarked) [Example 9, 2-[4-[4-(6-Chloro-3-pyridazinyl)-1-piperazinyl]butyl]hexahydro-4,6-ethenocycloprop[f]isoindole-1,3-(2H,3H)-dione, hydrochloride] | 40 (i.p.) mg/kg | –
20 | O=C1C2C3C=CC(C4CCC34)C2C(=O)N1CCCCN1CCN(c2cncc(Cl)n2)CC1 (centres unmarked) [Example 15, 2-[4-[4-(6-Chloro-2-pyrazinyl)-1-piperazinyl]butyl]-octahydro-4,7-etheno-1H-cyclobut[f]isoindol-1,3-(2H)-dione, hydrochloride] | 40 (i.p.) mg/kg | Ki [1]: 413 nM
21 | O=C(CCCN1CCC2(CC1)C(=O)NCN2c1ccccc1)c1ccc(F)cc1 [Spiperone, reference compound] | – | ED50 (avoidance responding [3]; [4]): 0.13 mg/kg
22 | O=C1C2C3CCC(C4CCC43)C2C(=O)N1CCCCN1CCN(c2cncc(Cl)n2)CC1 (centres unmarked) [Example 5, 2-[4-[4-(6-Chloro-2-pyrazinyl-1-piperazinyl]butyl]octahydroo-4,7-ethano-1H-cyclobut[f]isoindole-1,3-(2H)-dione, hydrochloride, hemihydrate] | 40 (i.p.) mg/kg | –
23 | O=C1C2C3C=CC(C4CC34)C2C(=O)N1CCCCN1CCN(c2ncccn2)CC1 (centres unmarked) [Example 2, 4,4a,5,5a,6,6a-Hexahydro-2-[4-[4-(2-pyrimidinyl)-1-piperazinyl]butyl]-4,6-ethenocycloprop[f]isoindole-1,3-(2H,3aH)-dione,dihydrochloride, hydrate] | 40 (i.p.) mg/kg | –
